# Results reported in US12384816B2, “Blood-brain barrier permeable peptide” (NATIONAL UNIVERSITY CORPORATION KUMAMOTO UNIVERSITY, priority 2018, dated 2025).
# Positions of bridges follow the written chain, without caps; N, C: chain ends. Residues, ends and D or L forms follow the SMILES beside them.
# Experiments:
# Format in all cases: cell-based, human
# hCMEC/D3 cells [1] = experiment: Influence of monensin on hCMEC/D3 permeation of SLS-phage; conditions: monensin-containing medium for 18 hours, concentration-dependent
# Description: The medium at the luminal side and the abluminal side was replaced by a monensin-containing medium, and culture was further performed for 18 hours.
# hCMEC/D3 cells [2] = experiment: Influence of ligands on hCMEC/D3 permeation of SLS-phage
# Description: Using the hCMEC/D3 cells, influences by various ligands (vitronectin, fibrinogen, RGD peptide, transferrin) on the BBB permeability of the phage presenting the peptide SLSHSPQ (SEQ ID NO: 1) of the present invention were tested.
# In the +vitronectin group, human vitronectin (R&D Systems, Inc.) was added to give 20 μg/mL. In the +fibrinogen group, human fibrinogen (Wako) was added to give 50 μg/mL. In the +RGD group, an RGD peptide (SIGMA) was added to give 100 μM. In the +holo-Tf (transferrin) group, holo-Tf (SIGMA) was added to give 100 μM.
# hCMEC/D3 cells [3] = experiment: Uptake of FAM-labeled cyclic peptide into hCMEC/D3 cells (confocal microscopy); conditions: 10 µM, 37° C., 10, 30 and 60 minutes
# Description: A FAM-labeled synthetic cyclic peptide having the SLSHSPQ (SEQ ID NO: 1) sequence was prepared by requesting Scrum Co., Ltd. A peptide having the sequence of […] (SEQ ID NO: 5), which contains […] (SEQ ID NO: 6), was chemically synthesized, and then a cyclic peptide was formed by forming a disulfide bond between the cysteine residues. Then, a lysine residue was added to the C-terminal and FAM was further bonded to prepare a FAM-labeled cyclic peptide.
# The FAM-labeled synthetic cyclic peptide SLSHSPQ (SEQ ID NO: 1) (10 µM) was added to the cells, and incubated on a 37° C. hot plate for 10, 30 and 60 minutes. These were washed with 500 μL of cold PBS three times, and fixed with 4% PFA for 10 minutes. […] (registered trademark) Mounting Medium with DAPI was dropped, then, a cover glass was place thereon to enclose it, and FAM and DAPI were observed by a confocal microscopy. […] From this, it was confirmed that the synthetic cyclic peptide SLSHSPQ (SEQ ID NO: 1) is internalized in the cell.
# hCMEC/D3 cells [4] = experiment: Influence on tight junction (TEER) of hCMEC/D3 cells; conditions: 0 to 100 μM, until 48 hours
# Description: The synthetic cyclic peptide SLSHSPQ (SEQ ID NO: 1) (0 to 100 μM) before labeling prepared in Example 3 was added to the cells, and they were incubated in a CO2 incubator at 37° C. The influence on tight junction was evaluated by measuring TEER over time until 48 hours later.
# hCMEC/D3 cells [5] = experiment: Cytotoxicity (cell counting kit-8) in hCMEC/D3 cells; conditions: 0 to 100 μM, 24 and 48 hours
# Description: The synthetic cyclic peptide SLSHSPQ (SEQ ID NO: 1) (0 to 100 μM) was added to the cells, and incubated in a CO2 incubator at 37° C. The cell viability after 24 and 48 hours was calculated using the cell counting kit-8.
molecule,measurement,setting,value
CC[C@@]1([C@@H]2O[C@@H]([C@H]3O[C@@](O)(CO)[C@H](C)C[C@@H]3C)C[C@@H]2C)CC[C@H]([C@]2(C)CC[C@]3(C[C@H](O)[C@@H](C)[C@@H]([C@@H](C)[C@@H](OC)[C@H](C)C(=O)O)O3)O2)O1 [monensin],effect on hCMEC/D3 cell permeation amount of the SLS-phage,hCMEC/D3 cells [1],increased
fibrinogen,effect on permeation of the SLS-phage,hCMEC/D3 cells [2]; human fibrinogen 50 μg/mL,did not inhibit
RGD peptide,effect on permeation of the SLS-phage,hCMEC/D3 cells [2]; ligand 100 μM,did not inhibit
holo-transferrin,effect on permeation of the SLS-phage,hCMEC/D3 cells [2]; ligand 100 μM,promoted
FAM-labeled synthetic cyclic peptide SLSHSPQ: Cyclic ACSLSHSPQCGGGS with lysine residue added to the C-terminal and FAM bonded (not fully specified; cyclic; C-terminal lysine added; FAM label),uptake into hCMEC/D3 cells,hCMEC/D3 cells [3],taken up into the cells
CC(C)C[C@@H]1NC(=O)[C@H](CO)NC(=O)[C@@H](NC(=O)[C@H](C)N)CSSC[C@@H](C(=O)NCC(=O)NCC(=O)NCC(=O)N[C@@H](CO)C(=O)O)NC(=O)[C@H](CCC(N)=O)NC(=O)[C@@H]2CCCN2C(=O)[C@H](CO)NC(=O)[C@H](Cc2c[nH]cn2)NC(=O)[C@H](CO)NC1=O [synthetic cyclic peptide SLSHSPQ] (H-ACSLSHSPQCGGGS-OH; disulfide 2-10),influence on tight junction (TEER),hCMEC/D3 cells [4],did not reduce the tight junction
same,cytotoxicity (cell viability),hCMEC/D3 cells [5],no cytotoxicity
"vitronectin (protein, UniProt P04004 20-478, looked up, human vitronectin (R&D Systems, Inc.)) Vitronectin: DQESCKGRCTEGFNVDKKCQCDELCSYYQSCCTDYTAECKPQVTRGDVFTMPEDEYTVYDDGEEKNNATVHEQVGGPSLTSDLQAQSKGNPEQTPVLKPEEEAPAPEVGASKPEGIDSRPETLHPGRPQPPAEEELCSGKPFDAFTDLKNGSLFAFRGQYCYELDEKAVRPGYPKLIRDVWGIEGPIDAAFTRINCQGKTYLFKGSQYWRFEDGVLDPDYPRNISDGFDGIPDNVDAALALPAHSYSGRERVYFFKGKQYWEYQFQHQPSQEECEGSSLSAVFEHFAMMQRDSWEDIFELLFWGRTSAGTRQPQFISRDWHGVPGQVDAAMAGRIYISGMAPRPSLAKKQRFRHRNRKGYRSQRGHSRGRNQNSRRPSRATWLSLFSSEESNLGANNYDDYRMDWLVPATCEPIQSVFFFSGDKYYRVNLRTRRVDTVDPPYPRSIAQYWLGCPAPGHL",effect on permeation of the SLS-phage,hCMEC/D3 cells [2]; human vitronectin 20 μg/mL,inhibited
